Experiments:
SDC4/integrin-β1 = test: Duolink-PLA, SDC4/integrin-β1 extracellular interaction in fibroblast; type: cell-based, mouse; conditions: SDC4_87-131 100 nM; with Anti-SDC4(93-121), n=5
Method: (§1) Decellularized lung ECM (dECM) was prepared as described in previous study. 2 × 10^5 cells/mL NIH3T3 cells (mouse […], purchased from the Stem Cell Bank of the Chinese Academy of Sciences, Shanghai, China) were seeded on the dECM slices attached to the bottom of the culture dish and cultured in DMEM medium containing 0.5% fetal bovine serum (Gibco, Waltham, MA, USA) at 37°C and 5% CO2.
Cells or tissue slices were attached to slides, fixed and permeabilized and blocked with Duolink^TM (Merck, MO, USA) blocking buffer. Antibodies against the extracellular domain of SDC4 (5G9, mouse IgG, SCBT #sc-12766), integrin-αv (rabbit IgG, CST #4711) and integrin-β1 (rabbit IgG, CST #34971) were diluted and added to the samples and incubated overnight at 4°C. After washing, PLUS and MINUS (proximity ligation assay, PLA) probes were added to the samples and incubated at 37°C for 1 h. After washing, the samples were sequentially incubated with PLUS and MINUS (PLA) probes, ligation buffer and amplification buffer containing polymerase. Finally, the samples were mounted with in situ mounting medium containing DAPI. Images were acquired using a Leica SP5 confocal microscope (Leica Biosystems, Germany) and quantitative analysis was performed using ImageJ software.

[1] = tested on: BLM-induced PF, C57BL/6J mice; test: BLM-induced PF in mice: lung index and blood cell count; type: in vivo, mouse; conditions: n=6
Method: (§2) After the mice were anesthetized (1% sodium pentobarbital 50 mg/kg was injected intraperitoneally), 150 μL of bleomycin (BLM, 5 mg/mL, BIO-000001) was inhaled into the lungs of the mice by tracheal inhalation instillation. One day later, the mice were randomly divided into model and drug treatment groups, and the mice in the control group were only subjected to saline inhalation.
(§3) Based on the dosage of SDC2 fragment peptide and our experimental results (Supplementary Figure S10A and B), the dosage schedule of SDC4_87-131 was set as follows: starting on the third day after BLM inhalation, 1 mg/kg, administered via trachea infusion once every three days. And Anti-SDC4(93-121) 8 mg/kg was administered on the third and tenth days (reference dosage).
At the termination of the experiment, the mice were euthanized and their lung tissues were taken after the eyeballs were removed and blood was collected. Within 2 hours after blood collection, the blood samples were tested on the URIT-2900VetPLUS automatic animal blood cell analyzer.

[2] = tested on: integrin-αvβ1, FAK/AKT and PKCα/NF-κB pathways in NIH3T3 cells; test: Western blot of signaling proteins in dECM-stimulated fibroblast; type: cell-based, mouse; conditions: n=3
Method: as §1
20 mg of lung tissue was extracted with RIPA lysis buffer (Roche International Ltd., Bermuda, USA), and the protein concentration was determined using a BCA protein detection kit (Roche). Protein samples were separated by 10% sodium dodecyl sulfate polyacrylamide gel (SDS-PAGE) electrophoresis and transferred to a PVDF membrane. After blocking, the PVDF membrane was incubated with primary antibodies for α-SMA, Integrin-αV, SDC4, Integrin-β1, p-Smad3, FAK, and p-FAK (CST, #19245, #4711, #12236S, #34971, #9520S, #3285S, and #3284S) at 4°C overnight, followed by incubation with secondary antibodies (CST, #7074P2), development with ECL reagent (SAB), and acquisition of images with a chemiluminescence imaging system (ChemiScope 5600).

[3] = tested on: BLM-induced PF, C57BL/6J mice; test: BLM-induced PF in mice: HE, Masson, hydroxyproline; type: in vivo, mouse
Method: C57BL/6J mice (male, 8-to 9-week old, 18–22 g, SPF grade) were purchased from Shanghai Slake Laboratory Animal Co., Ltd. [SCXK (Hu) 2022-0004, Shanghai, China]. […] The mice were housed in an SPF environment with 22–25°C, 46–65% humidity and 12 h/12 h light-dark alternation, with free access to water and food. This animal experiment was approved by the Experimental Animal Welfare Ethics Committee of Fujian Medical University (No. FJMU IACUC 2021-0465), and was carried out in accordance with the National Research Council's Guide for the Care and Use of Laboratory Animals.
as §2, §3
Lung tissue samples were paraffin-embedded, then sliced and dewaxed, and HE and Masson staining were performed respectively. After dehydration and sealing, images were collected and analyzed using a microscope.
100 mg of lung tissue was accurately weighed and processed according to the instructions of the hydroxyproline assay kit (Nanjing Jiancheng, Nanjing, China), and the absorbance was measured at a wavelength of 550 nm. The data were expressed as micrograms (µg) of hydroxyproline per mg of dry lung tissue.

[4] = tested on: BLM-induced PF, C57BL/6J mice; test: BLM-induced PF in mice: RT-PCR of lung tissue; type: in vivo, mouse; conditions: BLM lung tissue
Method: as §2, §3
(§4) Total RNA was extracted from cells or lung tissue (10 mg) using Trizol reagent, and mRNA was reverse transcribed into cDNA using HiScript® II QRT SuperMix for qPCR (Vazyme, #R223-01). Real-time fluorescence quantitative PCR (RT-PCR) was performed using Hieff® qPCR SYB Green Master Mix (YEASEN, #11201ES08) to obtain the Ct value. The 2^−ΔΔCt method was used to obtain the relative expression level of mRNA in each group. Primers (Table 1) were purchased from Sangon Biotech.

NIH3T3 cells = test: RT-PCR of fibroblast activation markers, TGF-β1 and inflammatory factors in dECM-stimulated fibroblast; type: cell-based, mouse
Method: as §1, §4

Substance: Ac-NHIPERAGSGSQVPTEPKKLEENEVIPKRISPVEESEDVSNKVSM-NH2 [SDC4_87-131]
- integrin-β1/SDC4 interaction induced by dECM-PF (SDC4/integrin-β1): significantly reduce
- downregulating effect (blood leukocyte count) vs C8 ([1]; Figure 5F): notably stronger than that of C8
- lung index and blood leukocyte count ([1]; SDC4_87-131, C8, Anti-SDC4(93-121) groups): could reduce the lung index and blood leukocyte count
- expression of integrin-β1 ([2]; in vitro vs in vivo PF model): only reduced in the in vitro PF model
- expression level of integrin-αv ([2]; in vitro, 100 nM, 48 h): significantly reduced the expression level of integrin-αv
- FAK/AKT phosphorylation ([2]; in vitro, 100 nM): inhibit FAK/AKT phosphorylation activation in both in vitro and in vivo experiments
- phosphorylation level of PKCα and nuclear content of NF-κB (p65) ([2]; in vitro, SDC4_87-131 100 nM, C8 20 nM, Anti-SDC4(93-121) 100 ng/mL): could downregulate
- alveolar structural disorders and collagen deposition ([3]; SDC4_87-131 1 mg/kg ITD q3d, C8 10 mg/kg IP qd, Anti-SDC4(93-121) 8 mg/kg ITD day 3 and 10, to day 21): could alleviate alveolar structural disorders and collagen deposition
- difference between treatments (HE, Masson, hydroxyproline) ([3]; SDC4_87-131, Anti-SDC4(93-121) and C8 compared): no significant difference
- mRNA levels of α-SMA, FN, Col I, TGF-β1, IL-1β, IL-6 and TNF-α ([4]; 1 mg/kg ITD q3d, n=4–6): significantly reduced
- IL-6 downregulation vs C8 ([4]; n=4–5): stronger effect in downregulating IL-6 than C8
- dECM-PF-induced fibroblast activation (NIH3T3 cells; 100 nM, 48 h): significantly inhibit dECM-PF-induced fibroblast activation
- dECM-PF-induced fibroblast activation and TGF-β1 synthesis (NIH3T3 cells; SDC4_87-131 100 nM vs Anti-SDC4(93-121) 100 ng/mL): inhibited dECM-PF-induced fibroblast activation and TGF-β1 synthesis

Source: paper PMC12313019, “Fibrotic lung ECM upregulates SDC4/integrin-αvβ1 interaction and the interfering peptide SDC4_87-131 and its derivative peptides alleviate pulmonary fibrosis” (Regenerative Biomaterials, 2025)
